Patent US20240027479A1, “A Comprehensive Breath Test that Confirms Recent Use of Inhaled Cannabis within the Impairment Window” (RCU Labs, Inc., priority 2018, published 2024)

Experiments:
[1] = Stability of target analytes in the breath collection device; format: physicochemical
Source text: In particular, CBN, CBG, and Δ^9-THCV all have a much greater incidence in breath during peak impairment (the first hour after smoking) compared to pre-smoking. […] Stability of the analytes within the breath collection devices was previously established (see Table 4 below).

[2] = Cannabinoids and Δ^9-THC metabolites in capillary blood (LC-HRMS); settings: pre-smoking
Source text: The complex nature of cannabinoid pharmacokinetics and pharmacodynamics calls for a new approach for effectively determining recent use of cannabis within the impairment window. We sought to develop a multiple-parameter test based on pharmacological changes in Δ^9-THC and its metabolites in blood over time. This approach requires the collection of two samples separated by a known time interval, which is a critical difference compared to current blood testing methods that rely on the collection of a single sample. The two-sample strategy makes possible the detection of Δ^9-THC in its distribution phase where the half-life is very short [Moeller M R. et al., J Forensic Sci 37:969-83 (1992); Wall M E. et al., Clin Pharmacol Ther 34:352-63 (1983)], which occurs only within the first few hours after smoking, and for the evaluation of how Δ^9-THC metabolite levels in blood are changing with time relative to Δ^9-THC. A liquid chromatography high-resolution mass spectrometry (LC-HRMS) bioanalytical method for the quantification of cannabinoids in microsamples (50 μL) of whole blood was developed and validated for this purpose [DeGregorio M W. et al., J AOAC Int 103:725-35 (2020)].
A total of 92 subjects were included in clinical trials designed to evaluate the feasibility of the described method for determining recent cannabis use (blood-based study in 48 subjects) and recent cannabis use and impairment (breath- and blood-based study in 44 subjects). Each subject was given a single cannabis cigarette and instructed to smoke as much of it as possible within a 10-minute period. Cigarettes containing 500 mg of dried cannabis flower were prepared immediately before each smoking session. During the studies, subjects were given a variety of cannabis chemovars to smoke, with Δ^9-THC content ranging from a low of 8.5% to a high of 28.4%. A wide variety of chemovars was included to account for the variability in Δ^9-THC potencies available in numerous cannabis retail establishments in the various U.S. states where recreational and/or medicinal cannabis has been legalized. Capillary blood samples ([…] collected at various time points prior to smoking and up to 200 minutes after smoking, were obtained from a total of 92 subjects using a variety of methods including lancets and two types of automated blood collection devices. Exhaled breath samples were collected from a total of 44 subjects at various time points prior to smoking and up to 240 minutes post-smoking. Breath samples were collected using devices equipped with electrostatic polymer filters and that are designed to collect approximately 20 L of exhaled breath through normal breathing. The time required for breath sample collection was approximately 2-3 minutes. A total of 74 subjects were asked to self-assess their level of impairment before smoking and at each designated sampling time point after smoking based on a scale ranging from 0 (not impaired) to 10 (very impaired) as shown in FIG. 2. As a physical indicator of impairment, 44 subjects were evaluated for horizontal gaze nystagmus.
One of the first endpoints investigated during clinical development of the recent use test method was whether there is any relationship between blood Δ^9-THC levels and impairment. Prior to smoking, Δ^9-THC blood concentrations were evaluated in a group of 30 subjects before and up to 200 minutes after smoking a 500-mg cannabis cigarette and compared to a common legal limit (5 ng/mL) for establishing driver impairment due to cannabis.

[3] = Presence of cannabinoids in exhaled breath before and after smoking (LC-HRMS); format: in vivo, human
Procedure: (§1) The positive recent use test results outside of the three-hour impairment window based on blood sampling alone led to the incorporation of a second testing matrix, exhaled breath, to strengthen the results of the test method so that cannabis users who are within the impairment window after smoking can be more accurately identified. For this purpose, a total of 44 additional subjects were evaluated in a smoking study in which both exhaled breath and blood samples were collected and then analyzed by LC-HRMS for cannabinoids and Δ^9-THC metabolites. As with the 48-subject blood-based study, subjects were given a 500-mg cannabis cigarette to smoke, and breath and blood samples were collected at various time points before and after smoking.

[4] = Cannabinoid half-lives in exhaled breath, multi-point breath sampling; format: in vivo, human
Procedure: as §1
These included the presence of CBN, CBC, CBG, Δ^9-THCV, and CBGA, and short half-lives (<60 minutes) for Δ^9-THC, CBN, CBC, CBG, and Δ^9-THCV (see Table 5 below). […] Pre-smoking, half-lives were calculable for Δ^9-THC in only three subjects.
Evidence of recent cannabis use by inhalation through smoking or vaping dissipates rapidly in exhaled breath, and thus allowing 20 minutes between breath samplings, which was employed in the blood-based study and for most of the subjects in the blood and breath-based study, may result in the loss of valuable data. In the last nine subjects involved in the exhaled breath study, a back-to-back sample collection strategy was employed whereby two exhaled breath samples were collected in quick succession at 20 and 40 minutes post-smoking. Approximately two minutes elapsed between the collection of each sample. The very short half-lives observed for Δ^9-THC, CBN, and other cannabinoids (approximately five minutes or less) in exhaled breath would allow for rapid sampling (see Table 6 below).

[5] = Day 3, breath collection device
[6] = Day 7, breath collection device
[7] = Day 10, breath collection device
[8] = Day 30, breath collection device

With `CCCCCc1cc(O)c(C/C=C(\C)CCC=C(C)C)c(O)c1C(=O)O` [CBGA, cannabigerolic acid] the “Analyte Stability (%) at Room Temperature (20-25° C.)” value (from here on “Analyte Stability (%)”) [1, 5] was 99.4%, the “Analyte Stability (%)” value [1, 6] was 110.9% and the “Analyte Stability (%)” value [1, 7] was 110.4%. The “Analyte Stability (%)” value [1, 8] was 114.3%, the “detection in subjects' blood samples at baseline prior to smoking” value (“detection in subjects' blood samples” below) [2] was “detected” and the “Presence in exhaled breath, Percent (%) Positivity” value (from here on “Presence … Percent (%) Positivity”) ([3]; >60 minutes after smoking) was “(10.0%)”. For the same molecule, the “Presence in exhaled breath, positive/evaluable subjects” value (from here on “Presence … positive/evaluable subjects”) ([3]; >60 minutes after smoking) was 4/40, the “Presence … Percent (%) Positivity” value ([3]; Baseline (Pre-smoking)) was “(11.8%)” and the “Presence … positive/evaluable subjects” value ([3]; Baseline (Pre-smoking)) was 4/34. For the same molecule, the “Presence … Percent (%) Positivity” value ([3]; ≤60 minutes after smoking) was “(45.0%)” and the “Presence … positive/evaluable subjects” value ([3]; ≤60 minutes after smoking) was 18/40.
For `CCCc1cc(O)c2c(c1)OC(C)(C)[C@@H]1CCC(C)=C[C@@H]21` [Δ^9-THCV, Δ^9-tetrahydrocannabivarin], the “Analyte Stability (%)” value [1, 5] was 79.7%, the “Analyte Stability (%)” value [1, 6] was 68.1% and the “Analyte Stability (%)” value [1, 7] was 69.8%. The “Analyte Stability (%)” value ([1]; Day 14, breath collection device) was 56.5%, the “Analyte Stability (%)” value [1, 8] was 47.1% and the “Average Half-Life (minutes ± SD) in breath” value ([4]; 0-10 Minutes Post-Smoking) was 4.2 ± 3.9 min. For the same molecule, the “Average Half-Life (minutes ± SD) in breath” value ([4]; 0-20 Minutes Post-Smoking) was 2.9 ± 0.7 min, the “detection in subjects' blood samples” value [2] was “detected” and the “Presence … Percent (%) Positivity” value ([3]; >60 minutes after smoking) was “(0%)”. For the same molecule, the “Presence … positive/evaluable subjects” value ([3]; >60 minutes after smoking) was 0/40, the “Presence … Percent (%) Positivity” value ([3]; Baseline (Pre-smoking)) was “(0%)” and the “Presence … positive/evaluable subjects” value ([3]; Baseline (Pre-smoking)) was 0/34. The “Presence … Percent (%) Positivity” value ([3]; ≤60 minutes after smoking) was “(90.0%)” and the “Presence … positive/evaluable subjects” value ([3]; ≤60 minutes after smoking) was 36/40.
For `CCCCCc1cc(O)c2c(c1)OC(C)(C)C1CCC(CO)=CC21` (centres unmarked) [11-OH-Δ^9-THC, 11-hydroxy-Δ^9-tetrahydrocannabinol], the “detection in subjects' blood samples” value [2] was “detected”.
With `CCCCCc1cc(O)c2c(c1)OC(C)(C)[C@@H]1CCC(C(=O)O)=C[C@@H]21` [11-nor-9-carboxy-Δ^9-THC, 11-nor-9-carboxy-Δ^9-tetrahydrocannabinol] the “detection in subjects' blood samples” value [2] was “detected”.
For `CCCCCc1cc(O)c2c(c1)OC(C)(C)[C@@H]1C[C@@H](O)C(C)=C[C@@H]21` [8β-hydroxy-Δ^9-THC], the “detection in subjects' blood samples” value [2] was “detected”.
In the case of `CCCCCc1cc2c(c(O)c1C(=O)O)[C@@H]1C=C(C)CC[C@H]1C(C)(C)O2` [Δ^9-THCA, Δ^9-tetrahydrocannabinolic acid A], the “detection in subjects' blood samples” value [2] is reported as “detected”.
With `C=C(C)[C@@H]1CCC(C)=C[C@H]1c1c(O)cc(CCCCC)cc1O` [CBD, cannabidiol] the “detection in subjects' blood samples” value [2] was “detected”.
For `C=C(C)[C@@H]1CCC(C)=C[C@H]1c1c(O)cc(CCCCC)c(C(=O)O)c1O` [CBDA, cannabidiolic acid], the “detection in subjects' blood samples” value [2] was “detected”.
In the case of `CCCCCc1cc(O)c2c(c1)OC(C)(C)C1CC(O)C(CO)=CC21` (stereo not drawn) [8β,11-dihydroxy-Δ^9-THC], the “detection in subjects' blood samples” value [2] is reported as “detected”.
